In US20220282304A1, “SAME-SAMPLE ANTIBIOTIC SUSCEPTIBILITY TEST AND RELATED COMPOSITIONS, METHODS AND SYSTEMS” (CALIFORNIA INSTITUTE OF TECHNOLOGY, priority 2021, published 2022):

Tested on: Escherichia coli K12
Test: Digital same-sample filtration AST at four exposure durations (Example 8)
Assay type: cell-based
Conditions: for Both (number of wells) / Empty (number of wells) / Extracellular only (number of wells) / Intracellular only (number of wells) / Intact (most likely number of cells) / Killed (most likely number of cells): Treated 1.0 μg ETP/mL; for Both (number of wells) / Empty (number of wells) / Extracellular only (number of wells) / Intracellular only (number of wells): 12 partitions, qPCR; for Intact (most likely number of cells) / Killed (most likely number of cells): assuming one cell per non-empty sample
Protocol: The inoculum was small enough that no detectable difference in the sample's optical density at 600 mm (OD600) was detectable by a spectrophotometer with a sensitivity of 0.01 absorbance units. After an incubation at 37° C., the media became turbid with an OD600 of 0.34 absorbance units after 3.08 hours of incubation.
In this experiment, the number and volume of sample partitions was restricted, for logistical reasons, to 96 partitions 10 μL in volume, specifically the wells of a 96-well plate. A goal was chosen of having a >98% chance of ending up with at least 48 empty partitions. When all partitions are the same volume, the following formula relates the expected number of empty partitions, the partition volume, and the density of cells.
N is the total number of partitions, n is the number of empty partitions, V is the partition volume, D is the density of cells, and t is a threshold probability chosen by the practitioner. In order to achieve digital sample partitioning with the available 96-well plate, each 10 μL sample of the specimen needed to contain between 0.02 and 2.5 cells on average. In this experiment, a density of 1 cells per sample were targeted. Due to systematic bias in the conversion of OD600 to cell density, the actual density achieved in the exposure was closer to 0.281 cells per sample. The batch culture specimen itself was diluted to a density of 28.1 CFU/mL (0.0281 cells/μL) to achieve the target cells/sample density.
To begin the AST protocol, the contrived clinical specimen (containing 28.1 CFU/mL) was physically partitioned into the 96 samples by transferring 10 μL of the specimen, in 96 separate transfers (actually […] with a multichannel pipette), to each well of a separable 96-well microtiter plate. Then, the entire plate was sealed with a RNase/DNase-free plastic, adhesive sealing membrane.
Each well of the 96-well microtiter plate contained 15 μL of Mueller-Hinton Broth (MHB) growth media, placed there before the specimen was partitioned. Half of the wells (48) contained 0 μg/mL of dissolved ETP antibiotic and served as reference condition antibiotic exposures. The other half of the wells contained 1.67 μg/mL of ETP (for a final concentration of 1.0 μg/mL) and served as 48 treated condition antibiotic exposures. The separable plate comprised 4 detachable sections bearing 3 columns and 8 rows of wells.
The treated and reference conditions were arranged so that each of the four groups of wells contained 12 treated and 12 reference conditions. In total, there would eventually be eight experimental conditions: 4 exposure durations of 0, 30, 60, and 120 min, each with 12 treated and 12 reference conditions.
Immediately after the specimen had been partitioned, one section (24 wells in total) of the separable 96-well plate was detached to serve as the 0-minute set of conditions. The rest of the separable 96-well plate was incubated at 37° C. Then, the following step was repeated for each time point of 0, 30, 60, and 120 minutes.
The entire volume of each antibiotic exposure was transferred to a Millipore® 96-well sterile polystyrene MultiScreenHTS® filter plate (Millipore-Sigma MSGVS2210). Each well of the filter plate contained a hydrophilic polyvinylidene fluoride (PVDF) filter membrane with a 0.22 μm pore size. A 96-well polypropylene microtiter plate was affixed to the bottom of the filter plate. The filter plate was promptly centrifuged at 2200 relative centrifugal force for 3 minutes to speed the passage of the antibiotic exposure sample through the filter and into 96-well microtiter plate. The collected fluid was called the “filtrate.” […]

`C[C@@H](O)[C@H]1C(=O)N2C(C(=O)O)=C(S[C@@H]3CN[C@H](C(=O)Nc4cccc(C(=O)O)c4)C3)[C@H](C)[C@H]12` [ETP, ertapenem] was tested, and the susceptibility call (1.0 μg/mL ETP, overall p-value vs 0.005) was “susceptible”, the “Both (number of wells)” value (exposure duration 0 min) was 0 and the “Empty (number of wells)” value (exposure duration 0 min) was 12. The “Extracellular only (number of wells)” value (exposure duration 0 min) was 0, the “Intracellular only (number of wells)” value (exposure duration 0 min) was 0 and the “Intact (most likely number of cells)” value (exposure duration 0 min) was 0. The “Killed (most likely number of cells)” value (exposure duration 0 min) was 0, the “Both (number of wells)” value (exposure duration 30 min) was 0 and the “Empty (number of wells)” value (exposure duration 30 min) was 7. For the same compound, the “Extracellular only (number of wells)” value (exposure duration 30 min) was 4, the “Intracellular only (number of wells)” value (exposure duration 30 min) was 1 and the “Intact (most likely number of cells)” value (exposure duration 30 min) was 1. The “Killed (most likely number of cells)” value (exposure duration 30 min) was 4, the “Both (number of wells)” value (exposure duration 60 min) was 0 and the “Empty (number of wells)” value (exposure duration 60 min) was 8. For the same compound, the “Extracellular only (number of wells)” value (exposure duration 60 min) was 4, the “Intracellular only (number of wells)” value (exposure duration 60 min) was 0 and the “Intact (most likely number of cells)” value (exposure duration 60 min) was 0. The “Killed (most likely number of cells)” value (exposure duration 60 min) was 4, the “Both (number of wells)” value (exposure duration 120 min) was 0 and the “Empty (number of wells)” value (exposure duration 120 min) was 8. The “Extracellular only (number of wells)” value (exposure duration 120 min) was 4, the “Intracellular only (number of wells)” value (exposure duration 120 min) was 0 and the “Intact (most likely number of cells)” value (exposure duration 120 min) was 0. For the same compound, the “Killed (most likely number of cells)” value (exposure duration 120 min) was 4.
